Read-outs that look alike come from different tables or passages of the source.
Tests used:
[1] = test system: transient forebrain ischemia, hippocampal CA1 and cortical neurons; assay: Global cerebral ischemia (4VO), neuronal death by Fluoro-Jade B staining; format: in vivo, male Wistar rats; details: for maximum neuroprotection (Emax), neuronal death assay: iv at reperfusion onset
Protocol: Transient forebrain ischemia was induced in adult male Wistar rats (10–12 weeks, Charles River) by the standard four-vessel occlusion model (4VO) described previously. Briefly, both vertebral arteries were irreversibly occluded by electrocoagulation under anesthesia, with a mixture of atropine, ketamine, and diazepam (0.25, 62.5, and 5 mg/kg, respectively) delivered through intraperitoneal injection. After 24 h, ischemia was induced by carotid occlusion with atraumatic clips, for 15 min, and then the clips were removed from the carotid arteries to allow reperfusion. Body temperature was maintained at 37 °C during the surgical procedure. The animals were studied after 5 days of reperfusion (R5d) after which they were sacrificed. Sham control animals were prepared in the same way, without carotid occlusion. We performed a power analysis (http://www.biomath.info/power/ttest.htm) to determine the sample size. Significance level and statistical power were set at 0.05 and 0.8 (80%), respectively, which afforded a sample size of […] subjects per group. The treatments were administered with concealed allocation, and in randomized order, according to a computer-generated randomization program. Ischemic animals were treated with a vehicle solution (saline/ethanol, 90:10 vol/vol) or nitrone ISQ-201, dissolved in a vehicle solution through a single intravenous tail injection, when the carotid arteries were unclamped for reperfusion. In therapeutic window experiments, the animals were treated once at the reperfusion onset or at the set reperfusion time points, after ischemia. For the administration, at 6 h and 48 h of reperfusion after ischemia, the animals were anesthetized with isoflurane for 2–3 min and 5 min, respectively, prior to the treatment administration. An independent researcher prepared the treatments for each animal, according to the randomization schedule. Data of each experimental group were normalized to each vehicle control group. All procedures associated with animal experiments were approved by the Animal Care Ethics Committee of the Hospital Universitario Ramón y Cajal (Madrid, Spain, code no. 06/2015) and were performed according to the ARRIVE guidelines.
After 5 days of reperfusion (R5d), the animals were euthanized by transcardiac perfusion, under deep anesthesia. […]
Brain cryosections (10 µm thick) from ischemic animals reperfused for 5 days were used after fixation to detect neuronal death by Fluoro-Jade B staining, and visualized by fluorescence microscopy. Labeled (dead) neuronal cells (in green) were counted, as in TUNEL assay (see below). Data from different animals of each experimental group were independently analyzed by two observers, and treatment information was kept concealed throughout the study.

[2] = test system: transient forebrain ischemia; assay: Global cerebral ischemia (4VO), neurological deficit score (NDS); format: in vivo, male Wistar rats; details: evaluated at 5 days
Protocol: Transient forebrain ischemia was induced in adult male Wistar rats (10–12 weeks, Charles River) by the standard four-vessel occlusion model (4VO) described previously. Briefly, both vertebral arteries were irreversibly occluded by electrocoagulation under anesthesia, with a mixture of atropine, ketamine, and diazepam (0.25, 62.5, and 5 mg/kg, respectively) delivered through intraperitoneal injection. After 24 h, ischemia was induced by carotid occlusion with atraumatic clips, for 15 min, and then the clips were removed from the carotid arteries to allow reperfusion. Body temperature was maintained at 37 °C during the surgical procedure. The animals were studied after 5 days of reperfusion (R5d) after which they were sacrificed. Sham control animals were prepared in the same way, without carotid occlusion. We performed a power analysis (http://www.biomath.info/power/ttest.htm) to determine the sample size. Significance level and statistical power were set at 0.05 and 0.8 (80%), respectively, which afforded a sample size of <6 subjects per group. […]
Neurological deficits in rats subjected to global cerebral ischemia were blindly evaluated after 5 days of reperfusion (R5d). […]
In order to quantify potential functional impairments, the general state of the animals was assessed. […]

[3] = test system: lipid peroxidation and ROS levels; parameters: method as in PMID 26241908; details: preliminary results; cited from earlier work
[4] = Pharmacokinetics study, plasma concentration after intravenous bolus (LC-MS/MS); format: in vivo, male Wistar rats; details: rat; for clearance / Vd / k el / half-life / Cmax / AUC(0-t) / C0: male, Wistar; for clearance / Vd / k el / half-life / Cmax / AUC(0-t) / C0 / Clast: plasma; for clearance / Vd / k el / Cmax / AUC(0-t) / C0 / Clast: mean ± SE n=6; for clearance: read-out: Cl (terminal clearance) (converted); for Vd: read-out: Vd (volume of distribution); for k el: read-out: kel (terminal elimination constant) (converted); for half-life: iv; for AUC(0-t): read-out: AUC0–8h; for C0: read-out: C0 (initial concentration)
Protocol: For the study of the variation of the concentration of ISQ-201 in plasma, male Wistar rats (10–12 weeks, Charles River) were randomly divided into three groups (n = 6 per group) and treated intravenously, as a bolus with different concentrations of ISQ-201 (0.07, 0.25, and 1.0 mg/kg, respectively). Plasma samples were taken 0.25, 0.5, 1, 2, 4, and 8 h after the administration and the ISQ-201 concentration was determined by LC–MS/MS analysis. A noncompartmental analysis was performed for the determination of the toxicokinetic parameters, using the Phoenix 64 WinNonlin program (version 8.0). This study was carried out by Swiss BioQuant AG (Reinach, Switzerland).
Study of the variation of ISQ-201 concentration after a single bolus intravenous administration was carried out with different doses of ISQ-201 (0.07, 0.25, and 1.00 mg/kg). Plasma samples were collected 0.25, 0.5, 1, 2, 4, and 8 h after administration, and the ISQ-201 concentration was determined through LC/MS–MS (Figure 7). Pharmacokinetic parameters were calculated through a non-compartmental analysis (Table 2).

SMILES: CC(C)[C@H]1CC[C@H]2[C@@H]3CCC4=C/C(=[N+](\C)[O-])CC[C@]4(C)[C@H]3CC[C@]12C [ISQ-201]
- neuronal death vs vehicle, therapeutic window ([1]; 0.05 mg/kg iv given between 0 and 6 h after reperfusion, CA1 and cortex, evaluated at 5 days): significantly decreased
- dead neuron number vs vehicle group ([1]; 0.05 and 0.1 mg/kg iv at reperfusion onset, CA1 and cortex, 5 days of reperfusion): significant reduction
- maximum neuroprotection (Emax), neuronal death assay ([1]; cortex, most potent concentration, 5 days of reperfusion, vs vehicle = 0%): 80%
- maximum neuroprotection (Emax), neuronal death assay ([1]; hippocampal CA1, most potent concentration, 5 days of reperfusion): 31%
- neurological deficit score (NDS) vs vehicle ([2]; 0.05 mg/kg iv given after 48 h of reperfusion): could not improve
- neurological deficit score (NDS) vs vehicle ([2]; 0.05 mg/kg iv given between 0 and 6 h of post-reperfusion): improvement
- effect on lipid peroxidation and ROS levels [3]: decreased
- clearance ([4]; iv bolus 0.07 mg/kg): 1.75 mL/min
- Vd ([4]; iv bolus 0.07 mg/kg): 0.364 ± 0.11 L
- k el ([4]; iv bolus 0.07 mg/kg): 8.81e-05 s⁻¹
- clearance ([4]; iv bolus 0.25 mg/kg): 0.923 mL/min
- Vd ([4]; iv bolus 0.25 mg/kg): 0.166 ± 0.027 L
- k el ([4]; iv bolus 0.25 mg/kg): 9.53e-05 s⁻¹
- clearance ([4]; iv bolus 1.00 mg/kg): 0.895 mL/min
- Vd ([4]; iv bolus 1.00 mg/kg): 0.3 ± 0.103 L
- k el ([4]; iv bolus 1.00 mg/kg): 7.94e-05 s⁻¹
- half-life ([4]; 0.07 mg/kg, iv bolus 0.07 mg/kg, mean ± SE n=6, read-out: t1/2 (half-life) (converted)): 1.66 ± 0.1 h
- half-life ([4]; 0.25 mg/kg, iv bolus 0.25 mg/kg, mean ± SE n=6, read-out: t1/2 (half-life) (converted)): 1.51 ± 0.12 h
- half-life ([4]; 1 mg/kg, iv bolus 1.00 mg/kg, mean ± SE n=6, read-out: t1/2 (half-life) (converted)): 2.2 ± 0.53 h
- half-life ([4]; iv bolus, 0.07–1.00 mg/kg, read-out: half-life): 1.5 to 2 h
- Cmax ([4]; iv bolus 0.07 mg/kg): 50.6 ± 7.4 ng/mL
- AUC(0-t) ([4]; iv bolus 0.07 mg/kg): 81.1 ± 9.5 ng·h/mL
- C0 ([4]; iv bolus 0.07 mg/kg): 74.6 ± 12.2 ng/mL
- Cmax ([4]; iv bolus 0.25 mg/kg): 330 ± 51.2 ng/mL
- AUC(0-t) ([4]; iv bolus 0.25 mg/kg): 477 ± 42 ng·h/mL
- C0 ([4]; iv bolus 0.25 mg/kg): 490 ± 80.2 ng/mL
- Cmax ([4]; iv bolus 1.00 mg/kg): 1210 ± 300 ng/mL
- AUC(0-t) ([4]; iv bolus 1.00 mg/kg): 2030 ± 429 ng·h/mL
- C0 ([4]; iv bolus 1.00 mg/kg): 1690 ± 424 ng/mL
- Clast ([4]; iv bolus 0.07 mg/kg): 1.53 ± 0.09 ng/mL
- Clast ([4]; iv bolus 0.25 mg/kg): 7.49 ± 0.75 ng/mL
- Clast ([4]; iv bolus 1.00 mg/kg): 42.03 ± 4.42 ng/mL
- Cmax and AUC0-8h relation to dose ([4]; iv bolus, whole studied range 0.07–1.00 mg/kg): linearly related to the dose

— paper PMC7222207, “Characterization of a CholesteroNitrone (ISQ-201), a Novel Drug Candidate for the Treatment of Ischemic Stroke” (Antioxidants, 2020)
